Data as given in US8815919B2, “Oxadiazole derivatives” (Merck Serono SA, priority 2009, dated 2014).
Counter-ions that a name gives are not always drawn. Like-named read-outs stand apart in the source and are kept apart here.

Columns and labels:
[1] = biological target: T1, S1P1 (Homo sapiens, UniProt P21453); experiment: Receptor binding assay, [33P]sphingosine 1-phosphate competition, S1P1 membranes, WGA SPA beads
Procedure: (§1) Membranes were prepared from CHO cells expressing S1P1 or S1P3 for use in ligand and […] binding studies. Cells were suspended in 50 mM TRIS, pH 7.4, 2 mM EDTA, 250 mM Sucrose (buffer A) and 1× Complete protease inhibitor cocktail (Roche), and disrupted at 4° C. by N2 decompression using a cell disruption bomb (Parr Instrument). Following centrifugation at 1000 RPM for 10 min at 4° C., the supernatant was diluted (2×) in buffer A and centrifuged again at 19000 RPM for 75 min at 4° C. The pellet was then suspended in 10 mM HEPES, pH 7.4, 1 mM EDTA, 250 mM Sucrose (Buffer B), and 1× Complete EDTA-free protease inhibitor cocktail and homogenized using a potter. Membranes were flash frozen in liquid N2 and stored at −80° C.
(§2) Receptor binding assay: [33P]sphingosine 1-phosphate (3000 Ci/mmol; American Radiolabeled Chemicals, Inc.) was added to test compounds in 20% DMSO by competition. Membranes and WGA SPA beads (GE Healthcare) were added to give a final volume of 100 μl in 96-well plates or 50 μl in 384-well plates with assay concentrations of […] [33P]sphingosine 1-phosphate (respectively for S1P1 or S1P3), 50 mM HEPES, pH 7.5, 5 mM MgCl2, 100 mM NaCl, 0.4% fatty acid-free BSA, 1-5 μg/well of proteins in 96-well plates vs 0.6-1 μg/well of proteins in 384-well plates and 100 μg/well of WGA SPA beads in 96-well plates vs 75 μg/well of WGA SPA beads in 384-well plates. Binding was performed for 60 min at RT on a shaker and bound radioactivity was measured on a PerkinElmer 1450 MicroBeta counter. Triplicate samples were averaged and normalized as percentage of inhibition relative to total binding (only DMSO in well) and nonspecific binding (1000-fold excess of unlabeled S1P). Binding data were analyzed using the GraphPad Prism program or Genedata software.
Target sequence in this assay (P21453 whole entry, species assumed): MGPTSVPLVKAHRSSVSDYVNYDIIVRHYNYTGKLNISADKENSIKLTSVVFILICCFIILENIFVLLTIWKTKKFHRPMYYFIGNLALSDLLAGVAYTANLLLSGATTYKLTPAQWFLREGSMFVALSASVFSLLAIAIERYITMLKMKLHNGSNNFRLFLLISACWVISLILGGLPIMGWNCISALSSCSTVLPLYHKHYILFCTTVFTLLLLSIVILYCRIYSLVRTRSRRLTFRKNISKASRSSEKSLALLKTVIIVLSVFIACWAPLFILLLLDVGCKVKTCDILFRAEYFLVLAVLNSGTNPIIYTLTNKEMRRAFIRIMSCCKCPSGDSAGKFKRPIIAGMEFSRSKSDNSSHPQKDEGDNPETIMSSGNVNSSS

[2] = biological target: S1P3 (Homo sapiens, UniProt Q99500); experiment: Receptor binding assay, [33P]sphingosine 1-phosphate competition, S1P3 membranes, WGA SPA beads
Procedure: as §1, §2

[3] = biological target: T1, S1P1; experiment: S1P1 internalization assay in S1P1-U2OS cells (S1P1-EGFP), cell imaging; assay type: cell-based; parameters: host or cells: U2OS (human bone osteosarcoma epithelial cells), CMV promoter, geneticin selection; details: 1 hour incubation
Procedure: Cellular functional assays: Internalization of Sphingosine-1-phosphate receptor 1 (S1P1) in a human Cell line (U2OS) in a 384-well format using a Cell Imaging analysis. • Jo, E.; Sanna, M. G.; Gonzalez-Cabrera, P. J.; Thangada, S.; Tigyi, S.; Osborne, D. A.; Hla, T.; Parrill, A. L.; Rosen, H. Chem. Biol. 2005, 12, 703
The S1P1 internalization assay was performed in 384 well plates (Corning® 384 black with clear bottom 3712) using S1P1-U2OS cells from Biolmage (C039A), a human epithelial cell line (Human Bone Osteosarcoma Epithelial Cells). These cells expressed the human S1P1 Receptor fused to the green fluorescent protein (EGFP). A standard CMV promoter (cytomegalovirus promoter) controls the expression of S1P1-EGFP and continuous expression was maintained by addition of geneticin to the culture medium.
S1P1 Receptor desensitization induced the internalization of the membrane-localized S1P1-EGFP fusion protein to endosomes, which can be monitored by cell imaging analysis. The cells are plated in low serum medium (Dulbecco's Modified Eagle Medium (DMEM) with Glutamax-1 and high glucose, 1% Penicillin/Streptomycin, 1% Fetal Calf Serum (FCS), 0.5 mg/ml Geneticin) overnight.
The next day, S1P1-U2OS cells are incubated in 20 μl serum free medium (DMEM with Glutamax-1 and high glucose, 0.1% of fatty-acid free Bovin Serum Albumin (BSA), 10 mM, N′-2-Hydroxyethylpiperazine-N′-2 ethanesulphonic acid (HEPES) 1M) for 2 hours at 37° C./5% CO2. The cells are then treated with 4 μl compounds/agonists (6×/3% DMSO) for a total volume of 24 μl, and plates are incubated for 1 hour at 37° C./5% CO2.
S1P1-U2OS cells are fixed with 25 μl Paraformaldehyde 8% and stained with Hoechst 33345 dye (1:1000) for 20 minutes.
They were then washed 3 times with Phosphate Buffered Saline (PBS) and plates are sealed. The internalization of the receptor S1P1-EGFP is measured on Cellomics by calculating the “spot count per object” (“object” corresponds to nuclear and “spot” corresponds to S1P1-EGFP receptor). Internalization data were observed thanks to vHCS View and analyzed using Genedata® software.
Target sequence in this assay (P21453 whole entry): as the sequence (P21453 whole entry, species assumed) above

[4] = 96 well-plate, read-out: S1P1 binding Ki (M) (96 well-plate)
[5] = 96 well-plate, read-out: S1P3 binding Ki (M) (96 well-plate)
[6] = 384 well-plate, read-out: S1P1 binding Ki (M) (384 well-plate)
[7] = 384 well-plate, read-out: S1P3 binding Ki (M) (384 well-plate)

S1P3, sequence (Q99500 whole entry, species assumed): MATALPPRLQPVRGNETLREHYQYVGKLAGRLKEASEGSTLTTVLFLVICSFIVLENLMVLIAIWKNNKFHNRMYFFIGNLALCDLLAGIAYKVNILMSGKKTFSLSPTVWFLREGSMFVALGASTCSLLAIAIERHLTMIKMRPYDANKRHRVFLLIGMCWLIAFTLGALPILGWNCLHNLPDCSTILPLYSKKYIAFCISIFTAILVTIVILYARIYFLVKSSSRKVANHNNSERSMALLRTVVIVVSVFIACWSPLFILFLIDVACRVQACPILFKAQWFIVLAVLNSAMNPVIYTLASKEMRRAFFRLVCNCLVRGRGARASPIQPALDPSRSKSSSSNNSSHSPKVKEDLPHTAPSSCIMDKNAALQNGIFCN

| SMILES | Ki [1, 4] [M] | Ki [2, 5] [M] | EC50 [3] [nM] | Ki [1, 6] [M] | Ki [2, 7] [M] |
| --- | --- | --- | --- | --- | --- |
| COCc1cc(-c2nc(-c3cc(F)cc(CN(C)CC(=O)O)c3)no2)ccc1-c1ccccc1 [Example 76] | 1.81e-10 | 1.09e-08 | 5.36 | – | – |
| CCCN(CC(=O)O)Cc1cccc(-c2noc(-c3ccc(-c4ccccc4C)c(COC)c3)n2)c1 [Example 77, N-(3-{5-[2-(methoxymethyl)-2′-methylbiphenyl-4-yl]-1,2,4-oxadiazol-3-yl}benzyl)-N-propylglycine, hydrochloride salt] | 1.58e-09 | 6.05e-07 | 52.6 | 9.83e-10 | – |
| CCN(CC(=O)O)Cc1cccc(-c2noc(-c3ccc(-c4ccccc4C)c(COC)c3)n2)c1 [Example 78, N-ethyl-N-(3-{5-[2-(methoxymethyl)-2′-methylbiphenyl-4-yl]-1,2,4-oxadiazol-3-yl}benzyl)glycine, hydrochloride salt] | 4.41e-10 | 1.5e-07 | 34.3 | 2.47e-09 | 3.54e-07 |
| COCc1cc(-c2nc(-c3ccc(CN(C)CC(=O)O)c(OC)c3)no2)ccc1-c1ccccc1C [Example 79, 2-((2-methoxy-4-(5-(2-(methoxymethyl)-2′-methylbiphenyl-4-yl)-1,2,4-oxadiazol-3-yl)benzyl)(methyl)amino)acetic acid, hydrochloride salt] | 2.69e-09 | 4.84e-06 | 47.7 | 5.33e-09 | – |
| COc1cc(-c2noc(-c3ccc(N4CCCCC4C)c(C(F)(F)F)c3)n2)ccc1CN(C)CC(=O)O (stereo not drawn) [Example 80, 2-((2-methoxy-4-(5-(4-(2-methylpiperidin-1-yl)-3-(trifluoromethyl)phenyl)-1,2,4-oxadiazol-3-yl)benzyl)(methyl)amino)acetic acid, hydrochloride salt] | 1.6e-09 | 2.79e-06 | 47 | 3.12e-09 | – |
| COCc1cc(-c2nc(-c3ccc(CNCC(=O)O)c(F)c3)no2)ccc1-c1ccccc1F [Example 82, N-(2-fluoro-4-{5-[2′-fluoro-2-(methoxymethyl)biphenyl-4-yl]-1,2,4-oxadiazol-3-yl}benzyl)glycine, hydrochloride salt] | 5.42e-11 | 4.66e-08 | 1.73 | 3.74e-10 | 5.24e-08 |
| COCc1cc(-c2nc(-c3ccc(CNCC(=O)O)c(F)c3)no2)ccc1-c1ccccc1C [Example 83, N-(2-fluoro-4-{5-[2-(methoxymethyl)-2′-methylbiphenyl-4-yl]-1,2,4-oxadiazol-3-yl}benzyl)glycine, hydrochloride salt] | 7.39e-11 | 1.01e-07 | 1.2 | 1.8e-10 | 2.75e-07 |
| Cc1ccccc1-c1ccc(-c2nc(-c3ccc(CNCCC(=O)O)cc3)no2)cc1C(F)(F)F [Example 84] | 1.43e-10 | 1.56e-07 | 1.55 | 3.77e-10 | 1.73e-07 |
| CC1CCCCN1c1ccc(-c2nc(-c3ccc(CN(C)CC(=O)O)c(F)c3)no2)cc1C(F)(F)F (stereo not drawn) [Example 85, N-(2-fluoro-4-{5-[4-(2-methylpiperidin-1-yl)-3-(trifluoromethyl)phenyl]-1,2,4-oxadiazol-3-yl}benzyl)-N-methylglycine, dihydrochloride salt] | 3.16e-10 | 1.77e-07 | 13.6 | 9.74e-10 | – |
| COCc1cc(-c2nc(-c3cccc(CCN(C)CC(=O)O)c3)no2)ccc1-c1ccccc1C [Example 86, [(2-{3-[5-(2-Methoxymethyl-2′-methyl-biphenyl-4-yl)-[1,2,4]oxadiazol-3-yl]-phenyl}-ethyl)-methyl-amino]-acetic acid] | 1.46e-10 | 3.18e-08 | 4.98 | 4.97e-10 | – |
| COCc1cc(-c2nc(-c3ccc(CCN(C)CC(=O)O)cc3)no2)ccc1-c1ccccc1C [Example 87, [(2-{4-[5-(2-Methoxymethyl-2′-methyl-biphenyl-4-yl)-[1,2,4]oxadiazol-3-yl]-phenyl}-ethyl)-methyl-amino]-acetic acid] | 4.23e-10 | 4.2e-07 | 13.6 | 9.45e-10 | 3.85e-07 |
| COCc1cc(-c2nc(-c3ccc(CN(C)CC(=O)O)cc3)no2)ccc1-c1cccc(F)c1C [Example 90, N-(4-{5-[3′-fluoro-2-(methoxymethyl)-2′-methylbiphenyl-4-yl]-1,2,4-oxadiazol-3-yl}benzyl)-N-methylglycine, hydrochloride salt] | 2.78e-10 | 5.45e-07 | 4.46 | 8.65e-10 | 8.49e-07 |
| COCc1cc(-c2nc(-c3ccc(CN(C)CC(=O)O)c(F)c3)no2)ccc1-c1cccc(F)c1C [Example 91, N-(2-fluoro-4-{5-[3′-fluoro-2-(methoxymethyl)-2′-methylbiphenyl-4-yl]-1,2,4-oxadiazol-3-yl}benzyl)-N-methylglycine, hydrochloride salt] | 1.63e-10 | 2e-07 | 5.53 | 1.13e-09 | 3.35e-07 |
| CCOc1cc(-c2nc(-c3ccc(CN(C)CC(=O)O)c(F)c3)no2)ccc1-c1ccccc1C [Example 92, N-{4-[5-(2-ethoxy-2′-methylbiphenyl-4-yl)-1,2,4-oxadiazol-3-yl]-2-fluorobenzyl}-N-methylglycine, hydrochloride salt] | 1.72e-10 | 9.91e-08 | 7.91 | – | – |
| COCc1cc(-c2nc(-c3cc(Cl)cc(CN(C)CC(=O)O)c3)no2)ccc1-c1ccccc1C [Example 93, N-(3-chloro-5-{5-[2-(methoxymethyl)-2′-methylbiphenyl-4-yl]-1,2,4-oxadiazol-3-yl}benzyl)-N-methylglycine, hydrochloride salt] | 3.96e-10 | 9.4e-08 | 26.5 | – | – |
| COCc1cc(-c2nc(-c3ccc(CN(C)CC(=O)O)cc3C)no2)ccc1-c1ccccc1C [Example 102, 2-((4-(5-(2-(methoxymethyl)-2′-methylbiphenyl-4-yl)-1,2,4-oxadiazol-3-yl)-3-methylbenzyl)(methyl)amino)acetic acid] | – | 2.9e-07 | 13.7 | 1.44e-09 | 6.99e-07 |
| COCc1cc(-c2nc(-c3ccc(CNCC(=O)O)cc3C)no2)ccc1-c1ccccc1C [Example 106, 2-(4-(5-(2-(methoxymethyl)-2′-methylbiphenyl-4-yl)-1,2,4-oxadiazol-3-yl)-3-methylbenzylamino)acetic acid] | – | 1.59e-07 | 4.12 | 4.66e-10 | 2.96e-07 |
| Cc1cc(CNCC(=O)O)ccc1-c1noc(-c2ccc(-c3ccccc3C)c(C(F)(F)F)c2)n1 [Example 107, 2-(3-methyl-4-(5-(2′-methyl-2-(trifluoromethyl)biphenyl-4-yl)-1,2,4-oxadiazol-3-yl)benzylamino)acetic acid] | – | – | 2.84 | 4.79e-10 | 2.12e-07 |
